One block for each molecule: values may come before it.
Experiments:
rd10 mice [1] = assay: In vivo efficacy in rd10 mouse model of retinitis pigmentosa, electroretinographic (ERG) analysis; conditions: for retinal function measured by ERG activity: 3 μL of 20 mM solution per eye daily for 11 days, scotopic conditions, vs untreated rd10
Method: rd10 mice were treated by ocular instillation with phosphate buffered saline (PBS) containing the compounds of the invention (1, 35, 50, 56 and 70) for 11 days (from P14 to P24). Animals were dark adapted for 8 hours at P25 and full-field flash electroretinographic (ERG) responses were recorded with the retina illuminated with a LED-driven Ganzfeld dome. A series of light flashes of increasing intensity, from 0.001 to 10 cd s/m^2, were averaged both in scotopic (dark-adapted) and photopic (light adapted) conditions. Photopic cone responses were recorded following 5 min of light adaptation with a background white light (30 cd/m^2). Light intensity was controlled for each animal group (Mavo-Monitor USB, Gossen, Germany). The stimulation protocols were designed according to the International Society for Clinical Electrophysiology of Vision. Briefly, mice were anesthetized with intraperitoneal administration of a saline solution containing ketamine (95 mg/kg) and xylazine (5 mg/kg) and kept on a 37° C. heating pad. Ocular instillation of 1% tropicamide was applied to induce mydriasis. ERG responses were recorded from both eyes in response to a Ganzfeld stimulator under light flashes. A total of 4 to 64 consecutive stimuli were averaged, with an interval between light flashes in scotopic conditions of 10 s for dim flashes and of up to 60 s for the highest intensity for every light intensity used. For photopic conditions, a one-second interval between light flashes was used. ERG signals were amplified, and band filtered between 0.3 and 1000 Hz (CP511 AC amplifier; Grass Instruments, Quincy, MA, USA). Electrical signals were digitized at 20 kHz with a power laboratory data acquisition board (AD Instruments, Chalgrove, UK).
ERGs were performed using an electrode fixed to a corneal lens (Burian-Allen electrode; Hansen Ophthalmic Development Laboratory, Coralville, IA, USA) and a reference electrode fixed to the mouth, with a ground electrode placed in the tail. Rod-mediated responses were recorded from light flashes ranging from 0.001 to 10 cd s/m^2 with dark-adapted mice. Mixed rod- and cone-mediated signals were recorded in response to −1.5 to 1.5 log cd s/m^2 light flashes. Oscillatory potential (OP) was isolated using 11 cd s/m^2 white flashes, with a recording frequency ranging between 100 and 10,000 Hz. For recording of cone-mediated responses, we applied light flashes ranging from 0.5 to 2 log cd s/m^2 on a rod-saturating background of 30 cd s/m^2. Amplitudes of the a-wave and b-wave were averaged, using data provided by a researcher with no information regarding the experimental condition of mice.
Data correspond to a pool of 3 independent experiments (N=3) with 4-5 mice per experimental group. Data are expressed as mean+/−standard deviation. Unpaired t-test was used for statistical analysis.

[2] = Retinal biodistribution by in vivo autoradiography after ocular instillation; set-up: species or system Sprague-Dawley rats; conditions: 5 μL/eye of 20 mM PBS solution, autoradiography at 1, 8 and 24 h
Method: In order to test the bioavailability of the compounds 1, 24, 35, 53, 66 and 67 to the retina, the following species we used: mouse, rat, rabbit and swine. Animals were treated under anesthesia. In vivo autoradiography imaging was conducted at 1, 8 and 24 hours following the ocular instillation of compound [^3H]-35 (5 μL/eye) as a phosphate buffered saline (PBS) 20 mM solution under carrier added conditions (ca. 7 mBq/eye) on Sprague-Dawley rats (n=4 for each time point). After the enucleation, the eye was incubated firstly in an aqueous solution at 4% of paraformaldehyde for 4 hours, then in aqueous solution at 10% and 20% of sucrose for 2 hours each and finally in aqueous solution at 30% of sucrose for one week. All the incubations were at 4° C. The samples were fixed in OCT (optimal cutting temperature polymer) and fine 20-μm sections of eye were cut using a Leyca cryostat (Leica CM3050 S, Germany) at −24° C. The slices (20 μm thick) were disposed on glass slides (Superfrost Plus, Labolan). Autoradiography was performed in Beta Imager 2000 system (Biospace Lab, France), for 1 h on four consecutive slices of the central part of the organ where all the parts are visible (FIG. 1 A).

[3] = Retinal biodistribution after topical ocular administration, HPLC-MS of retina (mouse); assay type: in vivo; conditions: formulated with 0.2% hyaluronic acid vs PBS solution; 4 h after single ocular instillation
Method: Ocular instillation with PBS solutions containing 0.2% hyaluronic acid (HA) and the selected compounds of the invention were administered: 17 μg/eye (3 μL of 20 mM solution per eye) in mouse; 65 μg/eye (10 μL of 17 mM solution per eye) in rat; and 559 μg/eye (50 μL of 40 mM solution per eye) in swine. Animals were sacrificed after 4 hours (mouse, rabbit and swine) or after 24 hours (rats) of treatment to determinate the availability of the compounds in the retina. Retinas were mechanically homogenized in physiological serum ([…]) and processed to analyze the compounds availability by HPLC-MS.

rd10 mice [4] = assay: Morphometric analysis of the retina (immunohistochemistry, rhodopsin and cone arrestin); assay type: in vivo, mouse; conditions: 3 μL of 20 mM solution per eye for 11 days; vs untreated rd10
Method: A detailed morphometric analysis, based on immunohistochemistry, was performed. For this purpose, rd10 mice were treated by ocular instillation with phosphate buffered saline (PBS) containing compound 35 (3 μL of 20 mM solution per eye) for 11 days (from P14 to P24). At P25 eyeballs were enucleated and fixed with 4% paraformaldehyde (in PBS) for 3 hours. The anterior segment and lens were dissected, and the eyecups were incubated in 30% sucrose (in PBS) for 12 h at 4° C. Cryosection with DAPI. ocular cryosections were stained with DAPI, rhodopsin and cone arrestin for immunohistochemical analysis. Briefly, cryosections were incubated with antibodies against rhodopsin (Millipore, MABN15) and cone arrestin (Millipore, AB15282) both at 1:400 for 8 h at 4° C. and buffered with secondary antibodies both at 1:400 and DAPI (Sigma, D89542) 1:1000 for 1 hour. The sections were analyzed by fluorescent microscopy.

rd10 mice [5] = assay: Optokinetic response based on a modified Morris water maze; assay type: in vivo, mouse; conditions: daily ocular instillation for 16 days; spatial frequencies 0.01; 0.02; 0.17 and 0.35 cycles/degree
Method: rd10 mice were treated by ocular instillation with phosphate buffered saline (PBS) containing the compound 35 of the invention for 16 days (from P14 to P29). To study optokinetic (OKT) response, we conducted an OKT test in combination with a modified Morris water maze using 9 rd10 mice at p30: 5 treated with compound 35 and 4 untreated. Animals were adapted to the experimental conditions for 1 week before behavioral testing. Mice were trained in a square pool (70×40 cm) filled with water (24-26-C), with all sides opaque, except the frontal side, where a screen was placed. The screen was divided vertically into 2 equal parts. A pattern of moving vertical bars was presented on one half of the screen, with the other half turned off. The direction of the bars was random: 50% of the time moving to the right and 50% of the time moving to the left. The bar velocity was constant throughout the process. Mice were trained for one week to associate the area of the screen with moving bars with the presence of a submerged platform, not visible to the mice under the dim light conditions, that was placed right next to that area of the screen. The platform allowed the mice to escape from the water. […] Contrast sensitivity values were measured, and the results of treated and untreated mice were compared.

661W cells = assay: Prevention of 9-cis-Retinal and light-induced phototoxicity, impedance recording; assay type: cell-based; conditions: Mus musculus, light or radiation study, 20 μM 9-cis-Retinal, 30,000 luxes white light, impedance converted to percentage of cytolysis, read-out: EC50 of protection against phototoxicity
Method: 661W cells were seeded onto 96-wells MEA impedance plates (50,000 cells/well) and grown until confluence in the Maestro Edge equipment (Axion Biosystems) at 37° C. and 5% CO2. When impedance reaches a plateau, phototoxicity is induced by addition of 20 μm 9-cis retinal and 30,000 luxes of white light. Increasing concentrations of compound 35 were added (A). Impedance was recorded every minute for 24 hours and was converted to percentage of cytolysis (B). 661 W cells were seeded in a 96-wells impedance plate (50,000 cells/well), previously coated with ECM 1:100, and grown O/N at 37° C. and 5% CO2 in DMEM/F-12 (Thermo Fisher, 11320033) supplemented with 40 μL/L hydrocortisone 21-hemisuccinate (Sigma, H-2270), 40 μL/L progesterone (Sigma, P-8783), 0.032 g/L putrescine (Sigma, P-7505), 40 μL/L β-mercaptoethanol (Sigma, M-6250), antibiotic-antimycotic solution (Sigma, A5955) and 10% fetal bovine serum (FBS). After 8 h, the medium was replaced by DMEM/F-12 without FBS or complements to remove cellular debris. When cells arrived at a plateau in the impedance recording (4-8 hours after the medium change, depending on the culture plate) compound 35 was added and two hours later the 9-cis-Retinal (Cf=20 μM) was added. The cells were placed in the Maestro Z and exposed to 30,000 white light luxes. to register the impedance.

retinal function measured by ERG activity (rd10 mice [1]): increased retinal function
Compound: [O-][S+](Cc1cn(CCN2CCCCC2)nn1)c1cccc(C(F)(F)F)c1 (stereo not shown) [Compound 56, 1-[2-(piperidin-1-yl)ethyl]-4-[(3-trifluoromethylphenyl)sulfinylmethyl]-1H-1,2,3-triazole]

retinal function measured by ERG activity (rd10 mice [1]): increased retinal function
Compound: CC(C)c1ccc(S(=O)(=O)Cc2cn(CCN3CCOCC3)nn2)cc1 [Compound 70, 4-[(4-isopropylphenyl)sulfonylmethyl]-1-[2-(4-morpholinyl)ethyl]-1H,1,2,3-triazole]

Further lines, the molecule ahead of its results:

Compound: COc1ccc(OCc2cn(CCN(C)C)nn2)cc1 [Compound 1, 1-[2-(N,N-dimethylamino)ethyl]-4-[(4-methoxyphenoxy)methyl]-1H-1,2,3-triazole]
retinal function measured by ERG activity (rd10 mice [1]): increased retinal function

Compound: COc1ccc(SCc2cn(CCCNC(=N)NC(=N)N)nn2)cc1 [Compound 50, 1-[3-(biguanidinyl)propyl]-4-[(4-methoxyphenyl)thiomethyl]-1H-1,2,3-triazole]
retinal function measured by ERG activity (rd10 mice [1]): increased retinal function

Compound: [3H]c1c(CSc2ccc(OC)cc2)nnn1CCN(C)C [Compound 52, 1-[2-(N,N-dimethylamino)ethyl]-5-trithium-4-[(4-methoxyphenyl)thiomethyl]-1H-1,2,3-triazole]
time after administration up to which compound was detected in rat retina [2]: up to 24 h | time of peak concentration in rat retina [2]: around 8 h

Compound: COc1ccc(SCc2cn(CCN(C)C)nn2)cc1 [Compound 35, 1-[2-(N,N-dimethylamino)ethyl]-4-[(4-methoxyphenyl)thiomethyl]-1H-1,2,3-triazole]
delivery percentage to the mouse retina (percentage of administered dose per gram of retina) [3]: higher delivery percentage | cone function: recovery score vs. WT (rd10 mice [1]; 0.2 cd s/m^2 light intensity): 78% | cone function: increase of ERG amplitude (rd10 mice [1]; 0.2 cd s/m^2 light intensity, vs rd10 control group): 66% | retinal function measured by ERG activity (rd10 mice [1]): increased retinal function | preservation of photoreceptors (number of rods and cones per square mm, rod outer and inner segment) (rd10 mice [4]): significant preservation of photoreceptors | contrast sensitivity (visual acuity), treated vs untreated (rd10 mice [5]): greatest differences were observed in the outlier values of spatial frequency | EC50 (661W cells): 0.0305 µM
